Source: the supplement of paper PMC10307832

Columns and labels:
[1] = compound: C1=CC2=NC=CN=C2C=C1/C=C/3\C(=O)NC(=O)S3 + NC(=O)Nc1cc(-c2cccc(F)c2)sc1C(=O)N[C@H]1CCCNC1 [AZD7762] (partner 0.2 µM); assay: relative viability (nuclei count vs DMSO), 5 days (fraction); higher = more cells survive
Outline: (§1)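 Lung cancer cell lines were seeded in 1536-well plates and dosed by pin tool the next day, with either a single drug or a fixed anchor-drug dose combined with five library-drug doses (not always all listed) spaced in √10 steps. Five days later, one step fixed the cells and stained their nuclei (final 0.05% Triton X-100, 1% formaldehyde, 1 ug/ml Hoechst), and nuclei were counted on 4× images. Relative viability is the nuclei count in treated wells divided by the count in vehicle wells, and each value is the median of duplicate plates.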

[2] = compound: C1=CC2=NC=CN=C2C=C1/C=C/3\C(=O)NC(=O)S3 + O=C(CCCCCCC(=O)Nc1ccccc1)NO [Vorinostat] (partner 1 µM); assay: as above
Outline: as §1

Cell Line	relative viability ([1]; first compound 0.02 µM)	relative viability ([1]; first compound 0.06325 µM)	relative viability ([1]; first compound 0.2 µM)	relative viability ([1]; first compound 0.6325 µM)	relative viability ([1]; first compound 2 µM)	relative viability ([2]; first compound 0.02 µM)	relative viability ([2]; first compound 0.06325 µM)	relative viability ([2]; first compound 0.2 µM)	relative viability ([2]; first compound 0.6325 µM)	relative viability ([2]; first compound 2 µM)
NCI-H1915	0.704	0.712	0.705	0.703	0.713	0.578	0.525	0.636	0.468	0.499
NCI-H1944	0.52	0.448	0.535	0.403	0.437	0.515	0.511	0.551	0.536	0.512
NCI-H1975	0.589	0.632	0.705	0.747	0.418	0.683	0.734	0.735	0.731	0.674
NCI-H1993	0.772	0.801	0.963	0.538	0.432	0.734	0.843	1.08	0.767	0.008
NCI-H2085	0.972	0.845	0.958	0.984	0.918	0.729	0.716	0.799	0.781	0.748
NCI-H2087	1.14	1.36	1.21	1.21	1.26	0.536	0.742	0.58	0.646	0.469
NCI-H2126	0.886	1.16	0.952	0.937	0.581	0.666	0.825	0.843	0.801	0.462
NCI-H2170	0.849	0.866	0.888	0.766	0.874	0.732	0.583	0.846	0.776	0.878
NCI-H2342	0.377	0.47	0.453	0.397	0.335	0.677	0.781	0.799	0.731	0.636
NCI-H2347	0.773	0.692	0.778	0.745	0.704	0.53	0.565	0.718	0.49	0.591
NCI-H2405	0.824	0.924	0.762	0.722	0.428	1.04	1.14	1.11	1.08	0.526
NCI-H3122	0.989	1	0.984	0.991	0.913	0.926	0.981	1.03	1.07	1.05
PC-3 [JPC-3]	0.966	1.02	0.9	0.846	0.713	0.939	0.874	0.92	0.766	0.654
PC-14	0.421	0.272	0.423	0.322	0.299	0.799	0.713	1.01	0.689	0.571
RERF-LC-KJ	0.707	0.894	0.962	0.943	0.624	0.714	0.717	0.689	0.63	0.635
SW 900	0.653	0.571	0.652	–	0.525	0.544	0.517	0.453	–	0.647
